Test results as given in patent US12157745B2, “Heterocyclic systems and pharmaceutical compositions thereof” (University of Sharjah, priority 2018, dated 2024).

Assays:
cytosol aminopeptidase = molecular target: T1, cytosol aminopeptidase (Homo sapiens, UniProt P28838); assay: DARTS proteomic assay; assay type: binding
T1 construct: HEK293T cells were lysed using M-PER; endogenous in cells; host or cells: HEK293T lysate
Excerpt: (§1) The unique properties of compound it prompted an in-depth analysis to explore its potential novel targets. […] Mammalian thioredoxin reductases (TrxRs) are selenocysteine-containing homodimericflavin enzymes that catalyze the NADPH-dependent reduction of oxidized thioredoxins. […] Therefore, inhibiting this enzyme should form the foundation of a novel anticancer lead drug candidate. Many drug companies around the world are trying to design drugs that target this enzyme, however, until now there is no clinical anti-cancer drug that specifically targets TrxR although some drugs have been reported to inhibit TrxR to varying extents. […] One of the hurdles in developing a successful TrxR inhibitor is its cross reactions with thiols present inside the cells. […] Moreover, according to many reports, inhibiting excessive TrxR levels will also […] of Parkinson's disease as well as Alzheimer's disease. On the other hand, increased aminopeptidases are typically observed in many cancer tissues and play a key role in tumor cell proliferation, angiogenesis, and tumor invasiveness by regulating extracellular matrix degradation and cell signaling and recognition. […] A DARTS assay was used to assess the binding of compound 1t. HEK293T cells were lysed using M-PER (Thermo Scientific, Inc.) supplemented with protease and phosphatase inhibitors (Lysis buffer). 4.7 mg/mL of protein and TNC buffer (10 mM Tris, 140 mMNaCl, 5 mM CaCl2)) was added, compound it was diluted in DMSO to 3 different concentrations (0.01 μM, 0.1 μM, 1 μM) and incubated for one hour at room temperature. Trypsin (Promega) was added and incubated for 3 hours at 37° C. Thereafter, M-PER lysis buffer was added and the samples were concentrated with Microcon 10K centrifugal filters. The proteins were identified by gel electrophoresis liquid chromatography mass spectroscopy ([…]).

thioredoxin reductase = molecular target: T2, thioredoxin reductase (Homo sapiens, UniProt Q16881); assay: DARTS proteomic assay; assay type: binding; conditions: FIG. 9
T2 construct: HEK293T cells were lysed using M-PER; endogenous in cells; host or cells: HEK293T lysate
T2 sequence (Q16881 151-649 limits assumed): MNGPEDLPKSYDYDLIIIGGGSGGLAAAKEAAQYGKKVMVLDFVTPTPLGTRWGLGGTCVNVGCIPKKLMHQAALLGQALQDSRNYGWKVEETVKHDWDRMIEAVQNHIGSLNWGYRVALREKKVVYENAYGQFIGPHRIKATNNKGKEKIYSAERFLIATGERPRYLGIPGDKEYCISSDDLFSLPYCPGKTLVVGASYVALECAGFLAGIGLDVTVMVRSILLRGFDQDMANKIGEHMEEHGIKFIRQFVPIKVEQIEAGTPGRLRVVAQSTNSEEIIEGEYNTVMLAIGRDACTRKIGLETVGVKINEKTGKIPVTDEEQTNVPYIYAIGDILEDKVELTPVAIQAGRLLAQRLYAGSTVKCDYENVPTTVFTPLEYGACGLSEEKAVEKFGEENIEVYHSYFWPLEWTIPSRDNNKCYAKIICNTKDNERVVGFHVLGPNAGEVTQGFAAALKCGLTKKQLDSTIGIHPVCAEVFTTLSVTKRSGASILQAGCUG
Excerpt: as §1

MCF7 = assay: Full dose-response, survival of cancer cell line (SRB assay); assay type: cell-based; conditions: Homo sapiens, breast cancer, 48 hours of drug treatment, average of three individual experiments
Excerpt: (§2) Dulbecco's Modified Eagles Medium (DMEM), RPMI 1640 medium and propidium iodide (PI) were purchased from Sigma Aldrich (Darmstadt, Germany). For western blot, the antibodies; c-Myc, p^53, p^21, Bax, Bid, BclxL, GAPDH, caspase-3, caspase-9, p-ATM, p-ATR, p-Chk1, p-Chk2, p-P^53, and p-H2AX along with respective mouse/rabbit secondary antibodies were purchased from Cell Signaling Technology (Danvers, MA, USA). FITC Annexin V Apoptosis kit was purchased from BD Biosciences (New Jersey, USA). All other chemicals and solvents used were of standard analytical grade. The stock solutions of SIMR compounds were made in 100% DMSO and working solutions for treatments never exceeded >1% DMSO. The cell lines were gifted from Radiobiology and Experimental Radio Oncology lab, University Cancer Center, Hamburg University, Hamburg, Germany. F180 and HCT116 cells were cultured in DMEM media while MCF-7 and SKBR3 cells were cultured in RPMI along with 10% FBS and 5% CO2 in a humidified incubator at 37° C. The cells were grown on polystyrene T-75 (75 cm^2) culture flasks and all the experiments were performed at ˜70% cell confluency.
(§3) SRB assay was performed on DU-143 and MCF-7 cells in order to find out the sub-lethal dosage (IC50) of the synthesized compounds based on reported method with minor modifications. Briefly, 1×10^4 cells were seeded in a 96-well plate overnight and were treated with different concentrations of compounds and incubated further for 48 hours. The wells which were devoid of any treatment served as controls. After the treatment time, the plates were incubated with 50% trichloroacetic acid (TCA) at 4° C. for 1 hour. The cells were then washed, dried and exposed to 1% acetic acid for short period. Two hundred microliters of 10 mMtris base solution was then added with 10 min incubation after drying the plates and the OD was read at 492 nm by using a Multiskan™ GO (Thermo Scientific, USA) microplate Spectrophotometer.

HCT116 = assay: as above; assay type: cell-based; conditions: Homo sapiens, HCT-116; colon cancer; 48 hours of drug treatment; average of three individual experiments
Excerpt: as §2, §3

SKBR3 = assay: as above; assay type: cell-based; conditions: Homo sapiens, SK-BR-3; breast cancer; 48 hours of drug treatment; average of three individual experiments
Excerpt: as §2, §3

tubulin = assay: Tubulin polymerization / microtubule formation (immunofluorescence and kit method); assay type: cell-based; conditions: in comparison to colchicine and taxol (positive controls); FIGS. 4A and 4B
Experimental: Cell synchronization and tubulin study: The antiproliferative effect of the compound it was tested on MCF7 cells which were synchronized at specific phases of the cell cycle. […] One way of inhibiting cell proliferation in G2/M phase is by altering equilibrium between polymerization and depolymerization of microtubule proteins which is required for active mitotic cell division.
An immunofluorescence method is used for detecting tubulin polymerization effect of compound 1t. The cells (5×10^4/well) were plated overnight on coverslips on a six well plate and treated with IC50 concentration of compound 1t, taxol and colchicine for 24 hours. After treatment, the cells were rinsed twice with PBS, fixed with 3.7% paraformaldehyde, and permeabilized with 0.1% Triton X-100. The cells were then blocked with 1% BSA in PBS for 1 hour before further incubation with anti-p-tubulin mouse monoclonal antibody overnight at 4° C. (Cell Signaling, San Francisco, CA). […]
Tubulin polymerization was measured in vitro using the Tubulin Polymerization Assay kit (Cytoskeleton, Denver, CO). […] The polymerization of tubulin was monitored as fluorescence at 37° C. for 60 min, and the reading speed was programmed at 1 cycle/min with excitation and emission wavelengths of 360 and 450 nm, respectively, using the Varioskan® Flash spectral scanning multimode reader (Thermo Fisher Scientific™). […]

T1 sequence (P28838 whole entry): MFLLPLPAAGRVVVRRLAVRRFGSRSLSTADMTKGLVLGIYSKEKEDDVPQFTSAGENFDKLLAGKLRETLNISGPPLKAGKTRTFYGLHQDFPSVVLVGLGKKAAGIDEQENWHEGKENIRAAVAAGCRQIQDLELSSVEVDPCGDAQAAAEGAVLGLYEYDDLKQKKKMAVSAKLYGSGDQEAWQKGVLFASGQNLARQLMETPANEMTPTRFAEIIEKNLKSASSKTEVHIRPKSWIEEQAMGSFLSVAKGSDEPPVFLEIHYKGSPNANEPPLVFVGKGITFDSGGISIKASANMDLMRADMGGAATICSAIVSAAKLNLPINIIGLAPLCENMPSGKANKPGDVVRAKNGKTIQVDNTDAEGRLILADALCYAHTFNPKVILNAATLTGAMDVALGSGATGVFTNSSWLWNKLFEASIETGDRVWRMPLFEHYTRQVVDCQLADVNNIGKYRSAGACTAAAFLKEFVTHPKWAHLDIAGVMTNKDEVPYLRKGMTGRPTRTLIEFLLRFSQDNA

Targeting of cytosolic aminopeptidase (cytosol aminopeptidase): dose-dependent manner
Concentration of highest effect on TrxR (thioredoxin reductase): 1 µM
Modulation of TrxR (thioredoxin reductase; HEK293T lysate, 0.01, 0.1, 1 μM): concentration-dependent modulation
SMILES: CC1(C)[C@H]2COc3ccc4ccccc4c3[C@H]2N=C2SC(c3ccccc3)=C(c3ccccc3)N21 [Compound 1t]
IC50 (MCF7): 1910 nM
IC50 (HCT116): 1500 nM
IC50 (SKBR3): 1900 nM
Inhibition of microtubule formation (tubulin): strong inhibition
